Test results: ChEMBL document CHEMBL6178009, “Targeted Degradation of BCL6 Using Novel Bifunctional Degraders: A New Therapeutic Strategy for BCL6-Positive Cancers” (ACS Med Chem Lett, 2025)

How the values were obtained:
[1] = molecular target: Protein cereblon/B-cell lymphoma 6 protein (Homo sapiens) (UniProt Q96SW2+P41182); assay: PROTAC activity at CRBN/N-terminal HiBit-tagged BCL6 in human HT-1080 cells transfected with pLV-UBC-N-HiBiT- BCL6-PGK-puro assessed as degradation of BCL6 by measuring ratio of trough concentration of protein in cell compared to the concentration of protein before the cell contact with compound (Ymin) incubated for 5 hrs by luminescence based NANO-Glo HIBiT lytic detection assay relative to control
[2] = molecular target: Protein cereblon/B-cell lymphoma 6 protein (Homo sapiens, UniProt P41182+Q96SW2); assay: PROTAC activity at CRBN/N-terminal HiBit-tagged BCL6 in human HT-1080 cells transfected with pLV-UBC-N-HiBiT- BCL6-PGK-puro assessed as degradation of BCL6 incubated for 5 hrs by luminescence based NANO-Glo HIBiT lytic detection assay; type: cell-based

Structure (SMILES)	Emin [1] [%]	EC50 [2] [nM]
CNC(=O)COc1cc2cc(Nc3nc(N4CCN(CC5CCN(c6cccc7c(C8CCC(=O)NC8=O)nn(C)c67)CC5)CC4)ncc3Cl)cc3c2n(c1=O)CCO3 (configuration not stated)	< 30	≤ 25
CNC(=O)COc1cc2cc(Nc3nc(N4CCC5(CCN(CC6CCN(c7cc8c(cc7F)c(C7CCC(=O)NC7=O)nn8C)CC6)CC5)CC4)ncc3Cl)cnc2n(C)c1=O (configuration not stated)	< 30	≤ 25
CNC(=O)COc1cc2cc(Nc3nc(N4CCN(CC5CCN(c6ccc7c(C8CCC(=O)NC8=O)nn(C)c7c6)CC5(F)F)C(C)C4)ncc3Cl)cnc2n(C(C)C)c1=O (configuration not stated)	30	≤ 25
CNC(=O)COc1cc2cc(Nc3nc(N4CC[C@@H](CN5CCN(c6cccc7c(C8CCC(=O)NC8=O)nn(C)c67)CC5)[C@@H](C)C4)ncc3Cl)cc3c2n(c1=O)CCO3 (some centres not stated)	< 30	≤ 25
CNC(=O)COc1cc2cc(Nc3nc(N4CCC5(CC4)CCN([C@H](C)C4CCN(c6ccc7c(C8CCC(=O)NC8=O)nn(C)c7c6)CC4)CC5)ncc3Cl)cnc2n(C)c1=O (some centres not stated)	< 30	≤ 25
CNC(=O)COc1cc2cc(Nc3nc(N4CCC(CN5CCC(c6ccc7c(C8CCC(=O)NC8=O)nn(C)c7c6F)CC5)CC4)ncc3Cl)cc3c2n(c1=O)[C@@H](C)CO3 (some centres not stated)	< 30	≤ 25
